Results published in ChEMBL document CHEMBL4513151, “CO-ADD screening of Institut Català d'Investigació Química (Spain) compounds”.
In brackets after ≈: the same amount, converted by molar mass.

Legend:
HEK293 = experiment: cells; format: functional; conditions: Homo sapiens, ATCC CRL1573, HEK293; ASSAY_TEST Inhibition of Cell Viability; detection method Resazurin; Fluorescence (ex560/em590); MEDIA DMEM with 10% FBS; plate type 384well; TC; CORNING #3712; time 18 hr
Klebsiella pneumoniae = experiment: microbe, parasite or virus in culture; conditions: ATCC 700603, 18 h, ASSAY_TEST Inhibition of Bacterial Growth, detection method Absorption (OD600), MEDIA CAMHB, plate type 384well, NBS, CORNING #3640
Description: Antibacterial activity against Klebsiella pneumoniae MDR ATCC 70063 (CO-ADD:GN_003); MIC in CAMBH media using NBS plates, by OD(600)

Escherichia coli = experiment: microbe, parasite or virus in culture; conditions: ATCC 25922, 18 h, ASSAY_TEST Inhibition of Bacterial Growth, detection method Absorption (OD600), MEDIA CAMHB, plate type 384well, NBS, CORNING #3640
Description: Antibacterial activity against Escherichia coli ATCC 25922 (CO-ADD:GN_001); MIC in CAMBH media using NBS plates, by OD(600)

Candida albicans = experiment: microbe, parasite or virus in culture; conditions: ATCC 90028, ASSAY_TEST Inhibition of Fungal Growth, detection method Absorption (OD530), plate type 384well, NBS, CORNING #3640
Description: Antifungal activity against Candida albicans ATCC 90028 (CO-ADD:FG_001); MIC in YNB media using NBS plates, by OD630

Staphylococcus aureus = experiment: microbe, parasite or virus in culture; conditions: ATCC 43300, 18 h, ASSAY_TEST Inhibition of Bacterial Growth, detection method Absorption (OD600), MEDIA CAMHB, plate type 384well, NBS, CORNING #3640
Description: Antibacterial activity against Staphylococcus aureus MRSA ATCC 43300 (CO-ADD:GP_020); MIC in CAMBH media, using NBS plates, by OD(600)

Acinetobacter baumannii = experiment: microbe, parasite or virus in culture; conditions: ATCC 19606, 18 h, ASSAY_TEST Inhibition of Bacterial Growth, detection method Absorption (OD600), MEDIA CAMHB, plate type 384well, NBS, CORNING #3640
Description: Antibacterial activity against Acinetobacter baumannii ATCC 19606 (CO-ADD:GN_034); MIC in CAMBH media using NBS plates, by OD600

Pseudomonas aeruginosa = experiment: microbe, parasite or virus in culture; conditions: ATCC 27853, 18 h, ASSAY_TEST Inhibition of Bacterial Growth, detection method Absorption (OD600), MEDIA CAMHB, plate type 384well, NBS, CORNING #3640
Description: Antibacterial activity against Pseudomonas aeruginosa ATCC 27853 (CO-ADD:GN_042); MIC in CAMBH media using NBS plates, by OD(600)

Description for Cryptococcus neoformans: Antifungal activity against Cryptococcus neoformans H99 ATCC 208821 (CO-ADD:FG_002); MIC in YNB media using NBS plates, by Resazurin OD(600-570)

MIC (Cryptococcus neoformans): > 32 µg/mL | MIC (Klebsiella pneumoniae): > 32 µg/mL | MIC (Escherichia coli): > 32 µg/mL | MIC (Candida albicans): > 32 µg/mL | MIC (Staphylococcus aureus): 32 µg/mL (≈ 118 µM) | MIC (Acinetobacter baumannii): > 32 µg/mL | MIC (Pseudomonas aeruginosa): > 32 µg/mL
Structure (SMILES): C[C@]12CC[C@@H](O1)[C@H]1C=C[C@H](OC(=O)c3ccccc3)[C@H]12
CC50 (HEK293): > 32 µg/mL
